Legend:
Experiment in all cases: Bliss excess, mean over the matrix (fraction); higher = more synergy
A704 (Kidney Carcinoma) = tested on: A704 (Kidney Carcinoma)
Outline: (§1)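 Cell lines in DMEM/F12 or RPMI with 10% FBS were plated in 1536-well plates, held 24 hours at 37°C, 5% CO2, then given two-drug dose matrices for 72 hours (DMSO typically 0.2%). Viability was read by CellTiter-Glo 2.0 luminescence and scaled as inhibition from 0 (vehicle wells) to 1 (blank wells). Combination Emax is the second-highest inhibition in the matrix; Bliss excess is observed combination effect minus expected EA + EB − EA·EB, EA and EB being single-agent effects.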

[1] = tested on: BV-173 (Chronic Myelogenous Leukemia)
Outline: as §1

GI-1 (Glioblastoma) = tested on: GI-1 (Glioblastoma)
Outline: as §1

[2] = tested on: HC-1 (Other Blood Carcinomas)
Outline: as §1

IMR-5 (Neuroblastoma) = tested on: IMR-5 (Neuroblastoma)
Outline: as §1

[3] = tested on: KINGS-1 (Low Grade Glioma)
Outline: as §1

[4] = tested on: KU-19-19 (Bladder Carcinoma)
Outline: as §1

[5] = tested on: KYSE-150 (Esophageal Squamous Cell Carcinoma)
Outline: as §1

[6] = tested on: MFE-319 (Endometrial Carcinoma)
Outline: as §1

[7] = tested on: NCI-H1573 (Lung Adenocarcinoma)
Outline: as §1

[8] = tested on: NCI-H2405 (Lung Adenocarcinoma)
Outline: as §1

[9] = tested on: NCI-H322M (Lung Adenocarcinoma)
Outline: as §1

[10] = tested on: NCI-N87 (Gastric Carcinoma)
Outline: as §1

NH-12 (Neuroblastoma) = tested on: NH-12 (Neuroblastoma)
Outline: as §1

RPMI-7951 (Melanoma) = tested on: RPMI-7951 (Melanoma)
Outline: as §1

[11] = tested on: SCC-9 (Oral Cavity Carcinoma)
Outline: as §1

[12] = tested on: SNU-C1 (Colorectal Carcinoma)
Outline: as §1

[13] = tested on: TGBC11TKB (Gastric Carcinoma)
Outline: as §1

[14] = tested on: VMRC-LCD (Lung Adenocarcinoma)
Outline: as §1

| SMILES | Bliss excess (A704 (Kidney Carcinoma)) | Bliss excess [1] | Bliss excess (GI-1 (Glioblastoma)) | Bliss excess [2] | Bliss excess (IMR-5 (Neuroblastoma)) | Bliss excess [3] | Bliss excess [4] | Bliss excess [5] | Bliss excess [6] | Bliss excess [7] | Bliss excess [8] | Bliss excess [9] | Bliss excess [10] | Bliss excess (NH-12 (Neuroblastoma)) | Bliss excess (RPMI-7951 (Melanoma)) | Bliss excess [11] | Bliss excess [12] | Bliss excess [13] | Bliss excess [14] |
| --- | --- | --- | --- | --- | --- | --- | --- | --- | --- | --- | --- | --- | --- | --- | --- | --- | --- | --- | --- |
| COc1cccc(OCCCN)c1-c1cc(Nc2cnc(C#N)cn2)n[nH]1 [Prexasertib] + O=C(c1cc(Cc2n[nH]c(=O)c3ccccc23)ccc1F)N1CCN(C(=O)C2CC2)CC1 [Olaparib] (first compound max 1 µM, 7x7, partner max 10 µM) | -0.0973 | 0.0169 | -0.0364 | 0.0035 | -0.0097 | -0.0979 | 0.0061 | 0.0491 | -0.0891 | 0.0418 | -0.0339 | -0.126 | -0.127 | -0.0746 | -0.0358 | -0.0181 | -0.153 | -0.0658 | -0.0955 |
| CCN(CCO)CCCOc1ccc2c(Nc3cc(CC(=O)Nc4cccc(F)c4)[nH]n3)ncnc2c1 [AZD2811] + C=CCn1c(=O)c2cnc(Nc3ccc(N4CCN(C)CC4)cc3)nc2n1-c1cccc(C(C)(C)O)n1 [AZD1775] (first compound max 1 µM, partner max 1 µM) | -0.0547 | -0.0222 | 0.0285 | 0.0697 | -0.0064 | -0.0173 | -0.014 | 0.0438 | -0.0361 | -0.0457 | -0.021 | -0.0188 | -0.0657 | -0.0012 | 0.0106 | -0.0179 | -0.0321 | 0.0257 | 0.0049 |
| CS(=O)(=O)CCNCc1ccc(-c2ccc3ncnc(Nc4ccc(OCc5cccc(F)c5)c(Cl)c4)c3c2)o1 [Lapatinib] + NC1(c2ccc(-c3nc4ccn5c(=O)[nH]nc5c4cc3-c3ccccc3)cc2)CCC1 [MK-2206] (first compound max 10 µM, 7x7, partner max 10 µM) | – | – | 0.0275 | – | – | 0.032 | -0.0103 | 0.0159 | -0.0155 | -0.0055 | -0.111 | – | 0.0091 | – | – | 0.0038 | -0.0184 | -0.0334 | -0.0273 |
| C=CCn1c(=O)c2cnc(Nc3ccc(N4CCN(C)CC4)cc3)nc2n1-c1cccc(C(C)(C)O)n1 [AZD1775] + O=C(c1cc(Cc2n[nH]c(=O)c3ccccc23)ccc1F)N1CCN(C(=O)C2CC2)CC1 [Olaparib] (first compound max 1 µM, partner max 10 µM) | -0.0396 | 0.0184 | 0.0056 | -0.0393 | -0.0161 | -0.0777 | -0.0107 | 0.0282 | -0.0235 | -0.0251 | -0.0675 | -0.0222 | -0.046 | -0.0167 | -0.0176 | -0.0027 | -0.0721 | -0.0299 | -0.0597 |
| Cc1cc2ncnn2cc1Nc1ncc2c(n1)n(C1CCOCC1)c(=O)n2C [AZD7648] + O=C(c1cc(Cc2n[nH]c(=O)c3ccccc23)ccc1F)N1CCN(C(=O)C2CC2)CC1 [Olaparib] (first compound max 10 µM, 7x7, partner max 10 µM) | -0.0821 | -0.0062 | -0.0013 | -0.0389 | 0.0328 | -0.0561 | -0.0153 | -0.0351 | -0.0499 | -0.0205 | -0.0277 | -0.0342 | -0.0262 | 0.0165 | 0.0044 | -0.0438 | -0.0619 | -0.0447 | -0.0443 |
| COc1cccc(OCCCN)c1-c1cc(Nc2cnc(C#N)cn2)n[nH]1 [Prexasertib] + CN(C)CCCOc1ccc(-c2ccc3ncc4c(c3c2)n(C2CCOCC2)c(=O)n4C)cn1 [AZD0156] (first compound max 1 µM, 7x7, partner max 1 µM) | 0.0033 | -0.0676 | 0.0084 | -0.0134 | -0.015 | -0.0927 | -0.0046 | -0.0386 | -0.0129 | -0.0309 | -0.0037 | 0.011 | -0.0381 | 0.0111 | -0.0165 | -0.0159 | -0.0336 | -0.0009 | -0.0075 |
| C[C@@H]1COCCN1c1cc(C2([S@](C)(=N)=O)CC2)nc(-c2ccnc3[nH]ccc23)n1 [AZD6738] + O=C(c1cc(Cc2n[nH]c(=O)c3ccccc23)ccc1F)N1CCN(C(=O)C2CC2)CC1 [Olaparib] (first compound max 10 µM, 7x7, partner max 10 µM) | -0.0282 | -0.0099 | 0.0039 | -0.0238 | 0.0432 | 0.0032 | -0.032 | 0.0376 | -0.0089 | 0.0201 | 0.0132 | -0.0491 | 0.0043 | -0.0308 | 0.0207 | 0.0422 | -0.0345 | -0.0236 | -0.0231 |
| CN(C)CCCOc1ccc(-c2ccc3ncc4c(c3c2)n(C2CCOCC2)c(=O)n4C)cn1 [AZD0156] + CCN(CCO)CCCOc1ccc2c(Nc3cc(CC(=O)Nc4cccc(F)c4)[nH]n3)ncnc2c1 [AZD2811] (first compound max 1 µM, 7x7, partner max 1 µM) | -0.039 | -0.0331 | 0.0555 | -0.008 | -0.0257 | -0.0173 | 0.0358 | -0.0382 | -0.0431 | -0.0157 | -0.0241 | -0.0448 | 0.0046 | -0.0263 | -0.0152 | -0.014 | -0.0245 | 0.0298 | -0.0476 |
| COc1cccc(OCCCN)c1-c1cc(Nc2cnc(C#N)cn2)n[nH]1 [Prexasertib] + Cc1cc2ncnn2cc1Nc1ncc2c(n1)n(C1CCOCC1)c(=O)n2C [AZD7648] (first compound max 1 µM, 7x7, partner max 10 µM) | 0.0144 | -0.0218 | -0.019 | 0.0069 | -0.0065 | -0.0464 | -0.0038 | -0.0312 | -0.0064 | 0.0058 | -0.0386 | -0.0083 | -0.0119 | -0.0133 | 0.0049 | 0.0092 | -0.0873 | -0.0148 | -0.0323 |
| CCN(CCO)CCCOc1ccc2c(Nc3cc(CC(=O)Nc4cccc(F)c4)[nH]n3)ncnc2c1 [AZD2811] + O=C(c1cc(Cc2n[nH]c(=O)c3ccccc23)ccc1F)N1CCN(C(=O)C2CC2)CC1 [Olaparib] (first compound max 1 µM, 7x7, partner max 10 µM) | -0.0195 | -0.0212 | 0.0685 | 0.0928 | -0.0208 | -0.0579 | 0.0173 | 0.0291 | 0.0376 | -0.016 | -0.0075 | -0.0063 | 0.0237 | 0.0109 | 0.0463 | -0.0188 | -0.0016 | 0.0524 | -0.0949 |
| COc1cccc2c1C(=O)c1c(O)c3c(c(O)c1C2=O)C[C@@](O)(C(=O)CO)C[C@@H]3O[C@H]1C[C@H](N)[C@H](O)[C@H](C)O1 [Doxorubicin] + Cc1cc2ncnn2cc1Nc1ncc2c(n1)n(C1CCOCC1)c(=O)n2C [AZD7648] (first compound max 1 µM, 7x7, partner max 10 µM) | -0.023 | 0.0953 | 0.107 | 0.0693 | 0.194 | 0.0173 | 0.0843 | 0.0648 | 0.0152 | -0.0038 | -0.0042 | 0.0751 | -0.0298 | 0.0953 | 0.0709 | -0.0027 | -0.0037 | -0.0146 | 0.0256 |
| C=CCn1c(=O)c2cnc(Nc3ccc(N4CCN(C)CC4)cc3)nc2n1-c1cccc(C(C)(C)O)n1 [AZD1775] + C[C@@H]1COCCN1C2=NC(=NC(=C2)C3(CC3)[S@](=N)(=O)C)C4=C5C=CNC5=NC=C4 [AZD6738] (first compound max 1 µM, partner max 10 µM) | -0.0022 | 0.0199 | 0.0753 | -0.017 | 0.085 | -0.0475 | -0.0113 | -0.029 | 0.0583 | 0.0215 | -0.0039 | -0.0234 | -0.0824 | 0.0262 | 0.0368 | -0.0425 | 0.0303 | 0.0431 | 0.0369 |
| CN(C)CCCOc1ccc(-c2ccc3ncc4c(c3c2)n(C2CCOCC2)c(=O)n4C)cn1 [AZD0156] + C=CCn1c(=O)c2cnc(Nc3ccc(N4CCN(C)CC4)cc3)nc2n1-c1cccc(C(C)(C)O)n1 [AZD1775] (first compound max 1 µM, partner max 1 µM) | -0.0484 | 0.0116 | -0.0207 | -0.0238 | -0.0214 | -0.0779 | -0.0043 | -0.0386 | -0.0706 | -0.0537 | -0.0544 | -0.0027 | -0.0181 | -0.0406 | -0.0055 | -0.036 | -0.0401 | -0.0482 | -0.0399 |
| COc1cccc(OCCCN)c1-c1cc(Nc2cnc(C#N)cn2)n[nH]1 [Prexasertib] + C=CCn1c(=O)c2cnc(Nc3ccc(N4CCN(C)CC4)cc3)nc2n1-c1cccc(C(C)(C)O)n1 [AZD1775] (first compound max 1 µM, partner max 1 µM) | 0.018 | -0.0251 | 0.05 | 0.0149 | 0.12 | 0.072 | 0.0222 | 0.149 | -0.0049 | 0.108 | 0.032 | 0.0366 | -0.0324 | 0.047 | 0.0723 | 0.0249 | 0.0175 | 0.0431 | -0.0072 |
| Cc1cc2ncnn2cc1Nc1ncc2c(n1)n(C1CCOCC1)c(=O)n2C [AZD7648] + CN(C)CCCOc1ccc(-c2ccc3ncc4c(c3c2)n(C2CCOCC2)c(=O)n4C)cn1 [AZD0156] (first compound max 10 µM, 7x7, partner max 1 µM) | -0.0152 | 0.0151 | 0.0472 | -0.0398 | 0.009 | 0.0089 | 0.0009 | 0.0054 | 0.0572 | -0.0085 | -0.0074 | 0.0083 | 0.0452 | -0.0153 | -0.0164 | -0.0144 | -0.0423 | -0.0224 | 0.0122 |
| CCc1c2c(nc3ccc(O)cc13)-c1cc3c(c(=O)n1C2)COC(=O)[C@]3(O)CC [SN-38] + CN(C)CCCOc1ccc(-c2ccc3ncc4c(c3c2)n(C2CCOCC2)c(=O)n4C)cn1 [AZD0156] (first compound max 0.3 µM, 7x7, partner max 1 µM) | -0.0533 | -0.0256 | 0.0399 | -0.0261 | 0.0314 | -0.0185 | 0.0033 | 0.1 | -0.0108 | -0.0359 | -0.0082 | 0.15 | -0.0447 | -0.0954 | 0.0647 | 0.0484 | -0.0125 | 0.0074 | -0.0338 |

Source: the supplement of paper PMC11061612
